According to patent US7638509B2, “Diene compounds and formulations” (priority 2003, dated 2009):
Entries after “also recorded” stand apart in the source; their conditions may differ.

Experiments:
wild-type AR [1] = biological target: T1, wild-type AR (Homo sapiens, UniProt P10275); experiment: Anti-DHT activity on AR transcription, MMTV-Luc reporter in PC-3 cells transfected with AR; format: cell-based; design: expressed in transfected cells; host or cells: PC-3; details: for suppression of DHT-induced AR transactivation (in words): PC-3, 1 nM DHT, compound at 0.01, 0.1 or 1 μM; for antagonistic effects on DHT-enhanced AR transactivation (in words): compounds related to ADEK, cell line not given
T1 sequence (P10275 1-920): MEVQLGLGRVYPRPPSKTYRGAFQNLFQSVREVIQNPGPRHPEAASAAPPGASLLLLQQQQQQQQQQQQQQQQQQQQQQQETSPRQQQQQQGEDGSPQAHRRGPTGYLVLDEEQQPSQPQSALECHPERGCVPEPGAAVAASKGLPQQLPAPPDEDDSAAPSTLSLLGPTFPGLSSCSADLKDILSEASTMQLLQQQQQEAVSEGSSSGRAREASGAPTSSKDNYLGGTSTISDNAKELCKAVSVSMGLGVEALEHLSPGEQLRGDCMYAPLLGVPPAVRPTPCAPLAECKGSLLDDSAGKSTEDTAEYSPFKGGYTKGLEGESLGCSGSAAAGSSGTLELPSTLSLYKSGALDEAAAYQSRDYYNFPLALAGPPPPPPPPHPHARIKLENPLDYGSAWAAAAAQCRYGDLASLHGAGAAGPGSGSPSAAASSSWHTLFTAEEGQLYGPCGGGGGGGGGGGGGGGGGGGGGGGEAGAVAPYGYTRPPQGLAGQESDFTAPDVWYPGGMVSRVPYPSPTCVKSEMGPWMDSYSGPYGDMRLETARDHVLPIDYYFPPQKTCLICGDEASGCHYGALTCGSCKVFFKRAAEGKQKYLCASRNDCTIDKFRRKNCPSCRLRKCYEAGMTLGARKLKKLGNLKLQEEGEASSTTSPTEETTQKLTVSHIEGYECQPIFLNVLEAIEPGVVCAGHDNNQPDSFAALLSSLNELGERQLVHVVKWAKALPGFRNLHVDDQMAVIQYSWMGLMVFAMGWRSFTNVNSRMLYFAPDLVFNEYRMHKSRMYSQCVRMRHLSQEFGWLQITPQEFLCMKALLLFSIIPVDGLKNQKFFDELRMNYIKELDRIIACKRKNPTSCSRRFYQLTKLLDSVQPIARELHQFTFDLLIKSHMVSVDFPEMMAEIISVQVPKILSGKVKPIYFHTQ
Protocol: (§1) Cell Culture, Transfection, and Reporter Gene Assay. The human prostate cancer cell lines, LNCaP, PC-3, and DU145, and non-prostate cancer cell line COS-1 were maintained in RPMI or Dulbecco's modified Eagle's medium (DMEM) (Life Technologies) supplemented with 10% fetal bovine serum (FBS). Transfections and luciferase (Luc) assays were performed as previously described (Miyamoto, H., Yeh, S., Wilding, G. & Chang, C. (1998) Proc. Natl. Acad. Sci. USA 95, 7379-7384; Miyamoto, H., Rahman, M., Takatera, H., Kang, H.-Y., Yeh, S., Chang, H.-C., Nishimura, K., Fujimoto, N. & Chang, C. (2002) J. Biol. Chem. 277, 4609-4617). Briefly, cells seeded to reach a density of 50-60% confluence in 12 well tissue culture plates were transfected with 1.5 μg of DNA according to “SuperFect transfection” instructions (Qiagen). After 2-3 h incubation, cells were treated with medium supplemented with charcoal-stripped FBS containing either ethanol or ligands for 24 h. The cells were then harvested and whole cell extracts were used for Luc assay. The Luc activity was determined using a Dual-Luciferase Reporter Assay System (Promega) and luminometer.
(§2) To accomplish these studies, PC-3 cells were transfected with the wild-type AR expression plasmid pSG5-AR and MMTV-Luc. […] The Luc activity was measured relative to that of ethanol treatment (set as 1-fold). Values from the mean±SD of at least three determinations were used. PC-3 cells were transfected with the pSG5-AR and MMTV-Luc. […] Values from the mean±SD of at least three determinations were obtained.

LNCaP cells = experiment: LNCaP cell growth, cell count by hemocytometer; format: cell-based, human; details: 1 nM DHT; 1 μM compound in presence of DHT
Protocol: The mean±SD of three separate experiments was determined. […] Total cell number was counted by hemocytometer. The mean of at least three determinations was determined.

PSA = PSA expression in LNCaP cells, Western blot; format: cell-based, human; details: 48 h
Protocol: Western Blot. […] An antibody for -actin (Santa Cruz Biotechnology) was used as the internal control. Blots were quantitated by Collage software (Fotodyne).
The 33-kDa protein was quantitated. β-Actin expression was used as an internal control. […] The mean±SD of three separate experiments was determined. […] Total cell number was counted by hemocytometer. The mean of at least three determinations was determined.

wild-type AR [2] = biological target: T1, wild-type AR; experiment: AR transcriptional activity (androgenic activity), MMTV-Luc reporter in PC-3 cells transfected with wild-type AR; format: cell-based; design: expressed in transfected cells; host or cells: PC-3; details: PC-3, wild-type AR plasmid + MMTV-Luc, compound at 1000 nM, 24 h
Protocol: as §1
Anti-DHT Effect of DHEA Derivatives with Low Androgenic Activity on AR Transcription. Test compounds as antiandrogenic compounds, were characterized by analysis of their ability to induce AR transcriptional activity in the AR-negative PC-3 cell line. The Luc activity was determined in the cell extracts with transient transfection of wild-type AR plasmid and androgen response element-reporter plasmid (mouse mammary tumor virus (MMTV)-Luc). After transfection, the cells were treated with various compounds at 0.1-1,000 nM.
as §2

With `C[C@]12C=C[C@H](O)CC1=CC[C@@H]1[C@@H]2CC[C@@]2(C)[C@H]1CCC21OCCO1` as the compound, how does the melting point read?
The melting point was 138 to 140 °C.

Which “suppression of DHT-induced AR transactivation (in words)” value (from here on “suppression”) (wild-type AR [1]) does the source give for `C[C@]12CC[C@H]3[C@@H]([C@H](O)CC4C[C@@H](O)CC[C@@]43C)[C@@H]1CC[C@@H]2O` (stereo partly drawn) [3β,7α,17β-trihydroxyandrostane] here?
Its value is “little or no capacity”.

With `C[C@]12CC[C@H]3[C@@H]([C@@H](O)C=C4C[C@@H](O)CC[C@@]43C)[C@@H]1CC[C@@H]2O` [3β,7β,17β-trihydroxyandrost-5-ene] as the compound, how does the “suppression” value (wild-type AR [1]) read?
Its value is “little or no capacity”.

With `COC(=O)[C@H]1CC[C@@]2(C)C(=CC(=O)[C@@H]3[C@@H]2CC[C@]2(C)C(=O)[C@H](C(=O)OC)C[C@@H]32)C1` [3β,16α-bis-carbomethoxyandrost-5-ene-7,17-dione] as the compound, how does the “suppression” value (wild-type AR [1]) read?
Its value is “less effective”.

Which “suppression” value (wild-type AR [1]) does the source give for `C[C@]12CC[C@H]3[C@@H](CCC4=C[C@@H](O)CC[C@@]43C)[C@@H]1CC[C@@H]2O` [3β,17β-dihydroxyandrost-4-ene] here?
The value was “less effective”.

Which “suppression” value (wild-type AR [1]) does the source give for `CC(=O)O[C@H]1C=C[C@@]2(C)C(=CC[C@H]3[C@@H]4CC[C@H](O)[C@@]4(C)CC[C@@H]32)C1` [3β-acetoxy-17β-hydroxyandrost-1,5-diene] here?
The value was “less effective”.

What about the “antagonistic effects on DHT-enhanced AR transactivation (in words)” value (“antagonistic effects” below) (wild-type AR [1]) of the same compound?
Its value is “did not show significant antagonistic effects”.

Which “suppression” value (wild-type AR [1]) does the source give for `CC12CCC3(CC1=CC(O)C1C2CCC2(C)C1CCC21OCCO1)OCCO3` (stereo not drawn) [7α-hydroxyandrost-5-ene-3,17-bis ethylene ketal] here?
The value was “less effective; also recorded: little or no capacity”.

With `C[C@]12CC[C@H]3[C@@H]([C@@H](O)C=C4CC5(CC[C@@]43C)OCCO5)[C@@H]1CC[C@@H]2O` [7β,17β-dihydroxyandrost-5-ene-3-ethylene ketal] as the compound, how does the “suppression” value (wild-type AR [1]) read?
Its value is “less effective”.

With `C[C@]12CC[C@H](O)C[C@@H]1CC[C@@H]1[C@@H]2CC[C@]2(C)C(=O)[C@H](Br)C[C@@H]12` [16α-bromoepiandrosterone] as the compound, how does the “suppression” value (wild-type AR [1]) read?
The value was “little or no capacity”.

Which “suppression” value (wild-type AR [1]) does the source give for `CC(=O)O[C@H]1CC[C@H]2[C@@H]3CC(=O)C4=CC(=O)CC[C@]4(C)[C@H]3CC[C@]12C` [17β-acetoxyandrost-4-ene-3,6-dione] here?
Its value is “little or no capacity”.

For `CCC(=O)O[C@H]1CC[C@H]2[C@@H]3C(=O)C=C4CC5(CC[C@]4(C)[C@H]3CC[C@]12C)OCCO5` [17β-propionony-7-oxoandrost-5-en-3-ethylene ketal], which “suppression” value (wild-type AR [1]) is on record?
The value was “little or no capacity”.

With `C[C@]12CCC(=O)C[C@@H]1CC[C@@H]1[C@@H]2CC[C@]2(C)[C@@H](O)CC[C@@H]12` [DHT, dihydrotestosterone, reference compound] as the compound, how does the “effect on LNCaP cell growth, DHT alone or compound with DHT (in words)” value (LNCaP cells) read?
The value was “significantly increased cell growth”.

And the “endogenous PSA expression over mock treatment” value (PSA; 1 nM DHT or 1 μM HF, casodex, ADEK in absence of DHT)?
The value was 4.3 fold.

Which “suppression” value (wild-type AR [1]) does the source give for `C[C@]12CC[C@H]3[C@@H]([C@H](O)C=C4C[C@@H](O)CC[C@@]43C)[C@@H]1CC[C@@H]2O` [No. 5, 3β,7α,17β-trihydroxyandrost-5-ene] here?
The value was “modest suppression”.

What about the “induction on AR transcription as compared to mock treatment” value (“induction … compared to mock treatment” for short) (wild-type AR [2]) of the same compound?
Its value is “marginal induction”.

For `CC(=O)O[C@H]1C=C[C@@]2(C)C(=CC[C@@H]3[C@@H]2CC[C@]2(C)C(=O)CC[C@@H]32)C1` [No. 14, 3β-acetoxyandrost-1,5-diene-17-one], which “suppression” value (wild-type AR [1]) is on record?
Its value is “modest suppression”.

What about the “antagonistic effects” value (wild-type AR [1]) of the same compound?
Its value is “did not show significant antagonistic effects”.

What about the “induction … compared to mock treatment” value (wild-type AR [2]) of the same compound?
Its value is “marginal induction”.

Which “suppression” value (wild-type AR [1]) does the source give for `C[C@]12C=C[C@H](O)CC1=CC[C@@H]1[C@@H]2CC[C@]2(C)C(=O)CC[C@@H]12` [No. 16, 3β-hydroxyandrost-1,5-diene-17-one] here?
Its value is “modest suppression”.

What about the “antagonistic effects” value (wild-type AR [1]) of the same compound?
The value was “did not show significant antagonistic effects”.

What about the “induction … compared to mock treatment” value (wild-type AR [2]) of the same compound?
Its value is “marginal induction”.

Which “suppression” value (wild-type AR [1]) does the source give for `C[C@]12C=CC(=O)C=C1CC[C@@H]1[C@@H]2CC[C@]2(C)C(=O)CC[C@@H]12` [androst-1,4-diene-3,17-dione] here?
Its value is “less effective”.

And the “antagonistic effects” value (wild-type AR [1])?
The value was “did not show significant antagonistic effects”.

For `CC(O)(CS(=O)(=O)c1ccc(F)cc1)C(=O)Nc1ccc(C#N)c(C(F)(F)F)c1` (stereo not shown) [casodex, bicalutamide], which “DHT-induced PSA expression decreased to (DHT = 100%)” value (PSA; 1 μM compound + 1 nM DHT) is on record?
Its value is 58%.
